Source: US20220125837A1, “METHODS FOR CONTROLLED ELIMINATION OF THERAPEUTIC CELLS” (Bellicum Pharmaceuticals, Inc., priority 2014, published 2022)

Experiments:
Jurkat cells = assay: CID-induced apoptosis (annexin V) in transduced Jurkat cells; format: cell-based, human; settings: 10 nM CID for 8 hours
virus-specific T cells = assay: AP20187 on allostimulated gene-modified cells, pentamer analysis of virus-specific T cells; format: cell-based, human; settings: 10 nM; after 4 days reactivation with allogeneic PBMC
Procedure: In some experiments, cells also were cultured for 3 weeks post transduction and stimulated with 30G-irradiated allogeneic PBMC at a responder:stimulator ratio of 1:1. After 4 days of co-culture, a portion of cells was treated with 10 nM AP20187. Killing was measured by annexin V/7-AAD staining at 24 hours, and the effect of dimerizer on bystander virus-specific T cells was assessed by pentamer analysis on AP20187-treated and untreated cells.
An observation of note was that many virus-specific T cells were spared when dimerizer was used to deplete gene-modified cells that have been re-activated with allogeneic PBMC, rather than by non-specific mitogenic stimuli. […] Gene-modified allodepleted cells were maintained in culture for 3 weeks post-transduction to allow transgene down-modulation. Cells were stimulated with allogeneic PBMC for 4 days, following which a portion was treated with 10 nM AP20187.
The frequency of EBV-specific T cells and CMV-specific T cells were quantified by pentamer analysis before allostimulation, after allostimulation, and after treatment of allostimulated cells with dimerizer. The percentage of virus-specific T cells decreased after allostimulation. Following treatment with dimerizer, virus-specific T cells were partially and preferentially retained.

[1] = system: gene-modified allodepleted cells (SFG.iCasp9.2A.CD19); assay: Induction of apoptosis with AP20187 in gene-modified allodepleted cells (annexin V/7-AAD); format: cell-based, human
Procedure: Suicide gene functionality was assessed by adding a small molecule synthetic homodimerizer, AP20187 (Ariad Pharmaceuticals; Cambridge, Mass.), at 10 nM final concentration the day following CD19 immunomagnetic selection. Cells were stained with annexin V and 7-amino-actinomycin (7-AAD)(BD Pharmingen) at 24 hours and analyzed by flow cytometry. Cells negative for both annexin V and 7-AAD were considered viable, cells that were annexin V positive were apoptotic, and cells that were both annexin V and 7-AAD positive were necrotic. The percentage killing induced by dimerization was corrected for baseline viability as follows: Percentage killing=100%−(% Viability in AP20187-treated cells÷% Viability in non-treated cells).
The day following immunomagnetic selection, 10 nM of the chemical inducer of dimerization, AP20187, was added to induce apoptosis, which appeared within 24 hours.

[2] = system: iCasp9-ΔCD19-transduced MSCs; assay: In vivo killing of iCasp9 MSCs in SCID mice (luminescence, qPCR)
Procedure: All mouse experiments were performed in accordance with the Baylor College of Medicine animal husbandry guidelines. To assess the persistence of modified MSCs in vivo, a SCID mouse model was used in conjunction with an in vivo imaging system. MSCs were transduced with retroviruses coding for the enhanced green fluorescent protein-firefly luciferase (eGFP-FFLuc) gene alone or together with the iCasp9-ΔCD19 gene. Cells were sorted for eGFP positivity by fluorescence activated cell sorting using a MoFlo flow cytometer (Beckman Coulter, Fullerton, Calif.). Doubly transduced cells were also stained with PE-conjugated anti-CD19 and sorted for PE-positivity. SCID mice (8-10 weeks old) were injected subcutaneously with 5×10^5 MSCs with and without iCasp9-ΔCD19 in opposite flanks. […] For in vivo imaging of MSCs expressing eGFP-FFLuc, mice were injected intraperitoneally with D-luciferin (150 mg/kg) and analyzed using the Xenogen-IVIS Imaging System. Total luminescence (a measurement proportional to the total labeled MSCs deposited) at each time point was calculated by automatically defining regions-of-interest (ROIs) over the MSC implantation sites. These ROIs included all areas with luminescence signals at least 5% above background. Total photon counts were integrated for each ROI and an average value calculated. […]

[3] = large-scale CD19 selection (n=3)

In the case of `CC[C@H](C(=O)N1CCCC[C@H]1C(=O)O[C@H](CCc1ccc(OC)c(OC)c1)c1cccc(OCC(=O)NCC(CNC(=O)COc2cccc([C@@H](CCc3ccc(OC)c(OC)c3)OC(=O)[C@@H]3CCCCN3C(=O)[C@@H](CC)c3cc(OC)c(OC)c(OC)c3)c2)CN(C)C)c1)c1cc(OC)c(OC)c(OC)c1` [AP20187], the “apoptosis (annexin-V staining)” value (Jurkat cells; iCasp9M-transduced Jurkat) is reported as 57.2%+/−18.9%, the “apoptosis (annexin-V staining)” value (Jurkat cells; iFas-transduced Jurkat) is reported as 56.4%+/−15.6% and the “effect on virus-specific T cells” value (virus-specific T cells) is reported as “spares (and thereby enriches) viral reactive subpopulations”. The “Killing efficiency after correction for baseline viability” value ([1]; 10 nM, 24 hours) was “about 92.9%±3.8%”, the “AP20187-treated cells remaining viable” value ([1]; 10 nM, 24 hours, day following CD19 selection) was “about 5.5%±2.5%” and the “apoptosis after treatment with dimerizer” value ([1]; iCasp9 donor T cells) was greater than 90%. The “mean viability with AP20187” value [1, 3] was “about 3.9%”, the percentage killing [1, 3] was “about 95.4%” and the “mean viability with AP20187” value ([1]; small-scale selection (n=5)) was “about 6.6%”. The percentage killing ([1]; small-scale selection (n=5)) was “about 91.4%”, the “surviving iCasp9-positive cells, % of the original population” value ([2]; after one week) was 0.7% and the “killing / depletion of iCasp9-positive cells in vivo” value ([2]; two injections of 50 μg of CID 24 hours apart, qPCR) was greater than 99%.
